The term IC50 denotes the concentration at which inhibition is half-maximal.

Series [1] in a line: Qualitative solubility in solvents. The class given is physicochemical.
For series [2], the system named is MCF-7 breast cancer. Description: CV (crystal-violet) viability assay, MCF-7. The class given is cell-based, human. The settings on record: MCF-7, CV, 72 h of treatment. The procedure:
(§1) The following cell lines were used in this study: human cell lines (A375 melanoma, MCF-7 breast cancer, HCT116 colorectal carcinoma, and A2780 ovarian cancer. These cell lines were purchased from the American Type Culture Collection (Rockville, MD, USA). The A2780 cells were cultivated in DMEM, while all other cell lines were cultivated in the HEPES-buffered RPMI-1640 medium. The cell culture mediums were supplemented with penicillin (1000 units/mL), streptomycin (100 µg/mL), and 10% inactivated FBS. All cells were cultivated at 37 °C in a humidified atmosphere with 5% CO2.
(§2) Two colorimetric viability assays were applied, namely 3-(4,5-dimethylthiazol-2-yl)-2,5-diphenyl-2H-tetrazolium bromide (MTT) and crystal-violet (CV) (Sigma Aldrich, St. Louis, MO, USA), according to the previous studies. The cells were seeded overnight in 96-well plates: A2780 and MRC-5 8 × 10^3 cells/well, HCT 116 6 × 10^3 cells/well, A375 5 × 10^3 cells/well, and MCF-7 at 10 × 10^3 cells/well [67]. The standard solutions of complexes were prepared in DMSO. All cells were treated with the following concentrations of investigated compounds: 100, 50, 25, 12.5, 6.25, 3.125, and 1.56 µM. After 72 h of treatment, viability assays were conducted. For the CV assay, cells were fixed using 4% paraformaldehyde (PFA) for 20 min at room temperature after being washed once with PBS. Afterward, they were stained with 0.2% CV solution for 25 min. This procedure was followed by washing with double distilled water. The cells were left to dry overnight at room temperature. In the last step, 33% acetic acid was used to dissolve the remaining dye. The other test included incubating cells in MTT solution (0.5 mg L^−1 in cell culture medium) for […] at 37 °C in a humid environment with 5% CO2. After one hour, the MTT solution was discarded, and the formed formazan was dissolved using DMSO. A plate reader (Spectromax, Molecular Devices, San Jose, CA, USA) was utilized for the absorption measurements at 570 and 670 (background) nm. The cell viability was calculated as the percentage compared to untreated cells, and the mean was obtained using a four-parametric logistic function. Each of the three independent experiments was performed in quadruplicate.

The subject of series [3] is A2780 ovarian cancer. Description: MTT viability assay, A2780. The class given is cell-based, human. The conditions noted are these: 72 h of treatment. As to the method:
as §1, §2
In general terms: Tetrazolium dyes change colour on reduction, which living cells bring about.

In series [4] the test system is HCT116 colorectal carcinoma. Description: MTT viability assay, HCT116. Format: cell-based, human. The settings on record: 72 h of treatment. As to the method: as §1, §2
The test system of series [5] is A2780 ovarian cancer. Briefly: CV (crystal-violet) viability assay, A2780. The class given is cell-based, human. The settings on record: 72 h of treatment. The procedure: as §1, §2
The target of series [6] is T1, human serum albumin (HSA) (Homo sapiens, UniProt P02768).
T1 construct: purchased
T1 sequence (P02768 25-609): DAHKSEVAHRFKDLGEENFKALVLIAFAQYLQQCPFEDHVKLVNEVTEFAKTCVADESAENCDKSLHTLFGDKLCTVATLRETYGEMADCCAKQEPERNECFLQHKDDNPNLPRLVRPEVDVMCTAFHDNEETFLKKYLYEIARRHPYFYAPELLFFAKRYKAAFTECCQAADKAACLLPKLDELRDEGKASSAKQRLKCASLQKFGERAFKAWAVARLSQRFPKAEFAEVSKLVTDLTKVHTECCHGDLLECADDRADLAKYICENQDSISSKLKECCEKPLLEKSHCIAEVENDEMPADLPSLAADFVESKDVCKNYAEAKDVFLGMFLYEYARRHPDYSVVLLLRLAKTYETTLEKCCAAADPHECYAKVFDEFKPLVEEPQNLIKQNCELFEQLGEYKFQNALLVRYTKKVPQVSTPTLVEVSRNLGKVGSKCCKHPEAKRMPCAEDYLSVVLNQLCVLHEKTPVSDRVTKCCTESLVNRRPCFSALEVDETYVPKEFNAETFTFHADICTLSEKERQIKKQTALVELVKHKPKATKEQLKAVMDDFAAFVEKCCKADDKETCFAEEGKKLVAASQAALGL
Briefly: Spectrofluorometric titration of HSA (fluorescence quenching, double log Stern–Volmer, van't Hoff). Format: binding. The settings on record: for ΔHb / ΔSb: van't Hoff over three temperatures. The procedure: (§3) The protein binding affinity of obtained compounds was analyzed by the spectrofluorometric titration of BSA and HSA solution by the solution containing obtained compounds. The mixture was irradiated by light with a wavelength of 295 (BSA) and 280 nm (HSA). Both proteins contain fluorescent amino acids within active pockets, and the binding process can be monitored through the change in intensity and position of the emitted light maxima. The fluorescent emission depends on the chemical environment of amino acids. The measurements for each complex were repeated at three temperatures to allow the determination of the thermodynamic parameters of binding.
The binding affinity of obtained complexes was also examined towards HSA as a transport protein relevant to the human body. The temperature range was changed to reflect better temperatures common for humans (32–42 °C). The representative example of the HAS fluorescence measurements is shown in Figure 9, along with van’t Hoff’s plot. The decrease in the fluorescence intensity emission was also dependent on the concentration of complexes. On average, the binding constants were similar to the ones calculated for BSA. […] High correlation coefficients, between 0.990 and 0.998, were calculated for the dependency described by Equation (2). The number of binding places is 1, proving that the same type of complexes were formed between investigated compounds and HAS as previously shown for BSA.
(§4) The spectrofluorometric measurements were used to investigate the binding process of obtained compounds towards bovine serum albumin (BSA) and human serum albumin (HSA) on the Cary Eclipse MY2048CH03 instrument. The scan rate was 600 nm min^−1, and both slits were 5 nm. The excitation wavelengths were 295 nm and 280 nm for BSA and HSA, respectively. These energies are characteristics of the protein structure’s tryptophan and other fluorescent amino acid residues. The emission spectra were recorded between 310 and 500 nm. The concentration of proteins was held constant at 5 × 10^−6 M in […] phosphate buffer saline (pH = 7.4). The concentration of complexes changed from 1 to 10 × 10^−6 M, and the emission spectrum was recorded two minutes after the addition of compounds. The data were analyzed by the double log Stern–Volmer quenching equation (Equation (2)):(2) logI0−I/I=logKb+nlogQ
In the previous equation, I0 and I are the fluorescent emission intensities of BSA/HSA without and with added metal complexes, respectively; Kb is the binding constant; n is the number of binding places; and [Q] is the concentration of quenchers (metal complexes).
The changes in enthalpy and entropy of the binding process were determined from the vant’t Hoff equation (Equation (3)) following the measurements at three temperatures (27, 32, and 37 °C):(3) lnKb=−∆Hb/RT+∆Sb/R

Series [7] relates to MCF-7 breast cancer. Briefly: MTT viability assay, MCF-7. The class given is cell-based, human. The conditions noted are these: MCF-7, MTT, 72 h of treatment. As to the method:
as §1, §2

Series [8] concerns HCT116 colorectal carcinoma. Briefly: CV (crystal-violet) viability assay, HCT116. Format: cell-based, human. The conditions noted are these: 72 h of treatment. As to the method:
as §1, §2

Series [9] concerns the target T2, bovine serum albumin (BSA) (Bos taurus, UniProt P02769).
T2 construct: purchased
Description: Spectrofluorometric titration of BSA (fluorescence quenching, double log Stern–Volmer, van't Hoff). The conditions noted are these: for ΔHb / ΔSb: van't Hoff over three temperatures. The class given is binding. As to the method:
as §3, §4
In the previous equation, I0 and I are the fluorescent emission intensities of BSA/HSA without and with added metal complexes, respectively; Kb is the binding constant; n is the number of binding places; and [Q] is the concentration of quenchers (metal complexes). […]

Series [10] relates to A375 melanoma. Briefly: CV (crystal-violet) viability assay, A375. The conditions noted are these: 72 h of treatment. Format: cell-based, human. The procedure: as §1
as §2, with “After one hour, the MTT solution was discarded, and the formed formazan was dissolved using DMSO.” left out, “Each of the three independent experiments was performed in quadruplicate.” left out

For series [11], the system named is A375 melanoma. Description: MTT viability assay, A375. The class given is cell-based, human. The conditions noted are these: 72 h of treatment. The procedure: as §1
as §2, with “After one hour, the MTT solution was discarded, and the formed formazan was dissolved using DMSO.” left out, “Each of the three independent experiments was performed in quadruplicate.” left out

The mark [12] stands for this setting: in chloroform, dimethylsulfoxide, dimethylformamide, acetone, and acetonitrile.
The mark [13] stands for this setting: in methanol, ethanol, phosphate buffer saline, and water.

T2 sequence (P02769 25-607): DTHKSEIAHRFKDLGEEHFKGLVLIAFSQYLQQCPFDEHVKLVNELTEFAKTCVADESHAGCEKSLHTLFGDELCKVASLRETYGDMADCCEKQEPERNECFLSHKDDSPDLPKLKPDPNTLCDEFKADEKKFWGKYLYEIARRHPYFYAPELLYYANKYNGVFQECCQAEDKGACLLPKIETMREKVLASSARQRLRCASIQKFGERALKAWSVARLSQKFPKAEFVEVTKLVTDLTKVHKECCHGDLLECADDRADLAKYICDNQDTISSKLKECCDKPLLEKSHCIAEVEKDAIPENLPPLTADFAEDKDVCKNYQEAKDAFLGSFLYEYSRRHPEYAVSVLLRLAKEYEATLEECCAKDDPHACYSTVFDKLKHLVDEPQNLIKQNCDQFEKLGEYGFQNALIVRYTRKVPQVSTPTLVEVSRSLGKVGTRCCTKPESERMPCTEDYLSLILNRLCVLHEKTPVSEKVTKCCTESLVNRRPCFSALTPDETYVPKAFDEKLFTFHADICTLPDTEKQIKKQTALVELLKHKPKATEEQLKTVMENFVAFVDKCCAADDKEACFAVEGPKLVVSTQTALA

Consider `Cc1ncc(CO)c(/C=N/N=C(N)N)c1O` [PLAG, Pyridoxylidene-aminoguanidine], for which the solubility entry in [1] (in MeOH and DMF) is “soluble”; in series [1] (in diethyl ether and toluene), “insoluble”; in series [1] (in methanol, ethanol, and water), “moderately soluble”.

As to Cu(PLAG)(NCS)2 [Cu-PLAG], the IC50 in [2] is 65.4 ± 4.8 µM; in [3], 32.5 ± 2.6 µM; in [4] it was 81.5 ± 0.1 µM; in [5], 38.5 ± 2.1 µM; in [7] it was 48.3 ± 1.5 µM; in series [8], 97.4 ± 3.7 µM. Further, the “n (number of binding places)” value is given as 0.91 in series [6] (32 °C); 0.90 in [6] (37 °C); 0.98 in series [6] (42 °C); 1.13 in series [9] (27 °C); 1.10 in series [9] (32 °C); 0.98 in series [9] (35 °C). Besides, the ΔGb was -5.37 kcal/mol in series [6] (32 °C); -5.961 kcal/mol in [6] (37 °C); -6.554 kcal/mol in [6] (42 °C); -5.382 kcal/mol in series [9] (27 °C); -7.087 kcal/mol in series [9] (32 °C); -8.788 kcal/mol in series [9] (35 °C). For the same compound, the ΔHb in series [6] came to 30.727 kcal/mol; in series [9], 96.793 kcal/mol. Also, the ΔSb was 495.17 J mol^−1 K^−1 in [6] and 1425.02 J mol^−1 K^−1 in series [9]. Moreover, the solubility result in series [1] (setting [12]) was “soluble”; in series [1] (in diethyl ether and toluene), “insoluble”; in series [1] (setting [13]), “moderately soluble”. In addition, the results for the “Kb (binding constant)” value in series [9] (27 °C), in [9] (32 °C) and in series [9] (35 °C) were 9630 M⁻¹, 89700 M⁻¹ and 1.82e+06 M⁻¹, respectively.

Turning to [Co(PLAG)2]SO4^.2H2O [Co-PLAG], the IC50 in [10], in series [11], in [2], in series [3], in series [4] and in series [5] was greater than 100 µM each time. Also, the IC50 in series [7] and in series [8] was greater than 100 µM each time. Also, the “n (number of binding places)” value was 1.05 in series [6] (32 °C); 1.08 in series [6] (37 °C); 1.16 in series [6] (42 °C); 0.97 in [9] (27 °C); 0.98 in series [9] (32 °C); 0.96 in [9] (35 °C). Also, the ΔGb in [6] (32 °C) was -5.578 kcal/mol; in [6] (37 °C), -6.761 kcal/mol; in series [6] (42 °C), -7.945 kcal/mol; in series [9] (27 °C) it was -5.858 kcal/mol; in series [9] (32 °C) it was -6.021 kcal/mol; in [9] (35 °C), -6.181 kcal/mol. For the same compound, the ΔHb in series [6] was 66.597 kcal/mol; in series [9], 3.826 kcal/mol. Also, the ΔSb in [6] was determined as 990.11 J mol^−1 K^−1; in series [9], 135.08 J mol^−1 K^−1. The solubility result is recorded as “soluble” in series [1] (setting [12]); “insoluble” in series [1] (in diethyl ether and toluene); “moderately soluble” in series [1] (setting [13]). For the same compound, the entries for the “Kb (binding constant)” value in [9] (27 °C), in series [9] (32 °C) and in series [9] (35 °C) were 18600 M⁻¹, 20400 M⁻¹ and 22900 M⁻¹, respectively.

Turning to [Fe(PLAG)2]SO4^.2H2O [Fe-PLAG], the IC50 in series [10], in [11], in series [2], in [3], in [4] and in [5] was greater than 100 µM throughout. The IC50 in [7] and in series [8] was greater than 100 µM throughout. In addition, the “n (number of binding places)” value was 1.09 in [6] (32 °C); 0.90 in series [6] (37 °C); 1.12 in [6] (42 °C); 1.12 in [9] (27 °C); 1.10 in series [9] (32 °C); 1.04 in series [9] (35 °C). Also, the ΔGb was -5.081 kcal/mol in series [6] (32 °C); -6.647 kcal/mol in series [6] (37 °C); -8.212 kcal/mol in series [6] (42 °C); -6.171 kcal/mol in series [9] (27 °C); -6.888 kcal/mol in series [9] (32 °C); -7.605 kcal/mol in series [9] (35 °C). Moreover, the ΔHb in [6] is 90.411 kcal/mol; in series [9], 36.898 kcal/mol. Besides, the ΔSb in [6] is reported as 1309.95 J mol^−1 K^−1; in [9] it was 600.66 J mol^−1 K^−1. Besides, the solubility entry in series [1] (setting [12]) is listed as “soluble”; in series [1] (in diethyl ether and toluene) it was “insoluble”; in [1] (setting [13]), “moderately soluble”. The “Kb (binding constant)” value in series [9] (27 °C) was 31800 M⁻¹; in series [9] (32 °C), 83200 M⁻¹; in [9] (35 °C) it was 234000 M⁻¹.

For the origin of these results see PMC10573062, “Synthesis, Structural Characterization, Cytotoxicity, and Protein/DNA Binding Properties of Pyridoxylidene-Aminoguanidine-Metal (Fe, Co, Zn, Cu) Complexes” (International Journal of Molecular Sciences, 2023).
